Results on 37 compounds are retold here after ChEMBL document CHEMBL4483862, “Open-source discovery of chemical leads for next-generation chemoprotective antimalarials” (2018).

A value given as a limit tells only on which side of the number the result lay.

The test relates to Plasmodium berghei. Kind of test: Luciferase/luciferin-expressing antifolate-resistant parasites were used to infect a culture of HepG2 cells that were pre-incubated with compounds. Infected hepatocytes emit light due to the luciferase reaction. Assay results are presented as the percent inhibition of light emission compared to control. […]. In kind it is functional. As to conditions: sporozoite; for IC90: read-out: LUCIFERASE INFECTION ASSAY - IC90.

[1] abbreviates: read-out: LUCIFERASE INFECTION ASSAY - IC50.

As for `Cc1noc(C)c1S(=O)(=O)N1CCCN(C(=O)c2cc3c(s2)-c2ccccc2CC3)CC1`, the IC90 is greater than 10 µM. For the same compound, for the setting “PBLUC_HILL_SLOPE 2.04, PBLUC_R_SQUARED 0.622, read-out: LUCIFERASE INFECTION ASSAY - IC50”, the IC50 was determined as 4.56 µM.
`CCC(C(=O)Nc1nc(C)c(Cc2ccc3c(c2)OCO3)s1)c1ccccc1` (centres undefined): the IC90 was greater than 10 µM. Under setting [1], the IC50 is greater than 10 µM.
With `Brc1ccc(-c2ccc(CN3CCNCC3)s2)cc1`, the concentration for an effect of 90% (IC90) is greater than 10 µM. Moreover, the IC50 (HEPG2TOX_HILL_SLOPE 2.72, HEPG2TOX_R_SQUARED 0.0418, read-out: LUCIFERASE INFECTION ASSAY - IC50) is greater than 10 µM.
Turning to `COc1ccc(NS(=O)(=O)c2ccc(/C=C/C(=O)N(C)Cc3ccc(OC)c(OC)c3OC)cc2)cc1`, the IC90 is greater than 10 µM. Further, the IC50 (HEPG2TOX_HILL_SLOPE 0.416, HEPG2TOX_R_SQUARED 0.547, PBLUC_HILL_SLOPE 11.7, PBLUC_R_SQUARED 0.671, read-out: LUCIFERASE INFECTION ASSAY - IC50) stood at 9.46 µM.
Turning to `Cc1nn(-c2ccccc2)c(C)c1C(=O)Nc1nc2c(s1)CCCC2`, the IC90 amounted to 4.22 µM. Also, the IC50 (HEPG2TOX_HILL_SLOPE 2.86, HEPG2TOX_R_SQUARED 0.355, PBLUC_HILL_SLOPE 1.92, 0.823, PBLUC_R_SQUARED 0.870, 0.934, read-out: LUCIFERASE INFECTION ASSAY - IC50) amounted to 0.574 µM.
For `O=C1C=C(c2ccccc2)C(=O)N1Nc1ccc(Cl)cc1Cl`, the IC90 is greater than 9.9 µM. In addition, the IC50 (HEPG2TOX_HILL_SLOPE 5.8, HEPG2TOX_R_SQUARED 0.44, PBLUC_HILL_SLOPE 7.31, PBLUC_R_SQUARED 0.6, read-out: LUCIFERASE INFECTION ASSAY - IC50) was determined as 9.05 µM.
For the compound `Cc1c(/C=N/N)c2ccccn2c1C#N`, the IC90 was greater than 10 µM. The IC50 under setting [1] was greater than 10 µM.
Turning to `CCOc1cc(/C=C2\S/C(=N\C3CCCC3)NC2=O)cc(Br)c1OCC`, the IC90 came to 3.94 µM. Moreover, under “HEPG2TOX_HILL_SLOPE 17, HEPG2TOX_R_SQUARED 0.811, PBLUC_HILL_SLOPE 15.3, PBLUC_R_SQUARED 0.445, read-out: LUCIFERASE INFECTION ASSAY - IC50”, the IC50 is 3.41 µM.
For the compound `CC1(C)CC(=O)C=C(SCCS(=O)(=O)c2ccc(Cl)cc2)S1`, the IC90 is greater than 8.75 µM. Besides, the IC50 under setting [1] was greater than 8.75 µM.
For the compound `OCc1ccc(-c2cnc3cnc(/C=C/c4ccccc4)cn23)cc1`, the IC90 was 0.659 µM. Further, under “HEPG2TOX_HILL_SLOPE 0.99, HEPG2TOX_R_SQUARED 0.698, PBLUC_HILL_SLOPE 2.37, PBLUC_R_SQUARED 0.796, read-out: LUCIFERASE INFECTION ASSAY - IC50”, the IC50 worked out at 0.261 µM.
Take `C=CCn1c(-c2ccccc2)cs/c1=N\Nc1ccc([N+](=O)[O-])cc1`: the IC90 is greater than 10 µM. For the same compound, for the setting “FFLUC_HILL_SLOPE 10.5, FFLUC_R_SQUARED 0.467, read-out: LUCIFERASE INFECTION ASSAY - IC50”, the IC50 is greater than 10 µM.
`O=C(CSc1nnc(Nc2ccccc2)s1)Nc1ccccc1N1CCCC1`: the IC90 was greater than 10 µM. Under setting [1], the IC50 was greater than 10 µM.
As to `O=C(NCc1ccccn1)c1nn(CCc2ccccc2)c2c1CN(Cc1cccc3c1OCO3)CC2`, the IC90 is greater than 6.66 µM. Also, the IC50 (PBLUC_HILL_SLOPE 2.34, PBLUC_R_SQUARED 0.543, read-out: LUCIFERASE INFECTION ASSAY - IC50) came out at 5.68 µM.
Consider `COc1cncc(-c2cnc3sc(NCC4CCOCC4)nn23)c1`, for which the IC90 came out at 1.51 µM. Further, where the note is “HEPG2TOX_HILL_SLOPE 1.52, HEPG2TOX_R_SQUARED 0.935, PBLUC_HILL_SLOPE 11.6, PBLUC_R_SQUARED 0.526, read-out: LUCIFERASE INFECTION ASSAY - IC50”, the IC50 is 1.25 µM.
`Cc1ccc(C(=O)Nc2nc3ccccc3[nH]2)cc1F`: the IC90 was 4.06 µM. Further, the IC50 (FFLUC_HILL_SLOPE 1.36, FFLUC_R_SQUARED 0.795, PBLUC_HILL_SLOPE 11.8, PBLUC_R_SQUARED 0.45, read-out: LUCIFERASE INFECTION ASSAY - IC50) came to 3.37 µM.
As to `O=[N+]([O-])c1cccc(-c2csc(-n3nccc3C(F)(F)F)n2)c1`, the IC90 is greater than 10 µM. Further, under setting [1], the IC50 was greater than 10 µM.
As for `Cc1ccc(CCCNC(=O)c2cc(C3CC3)n[nH]2)c(C)c1`, the IC90 amounted to 4.2 µM. In addition, the 50% inhibitory concentration (IC50) (PBLUC_HILL_SLOPE 15.6, PBLUC_R_SQUARED 0.22, read-out: LUCIFERASE INFECTION ASSAY - IC50) was found to be 3.65 µM.
Consider `COc1ccccc1C(=O)c1cnc(Nc2cccc(Cc3ccccc3)c2)[nH]1`, for which the IC90 is greater than 8.61 µM. For the same compound, the IC50 (HEPG2TOX_HILL_SLOPE 11.7, HEPG2TOX_R_SQUARED 0.773, PBLUC_HILL_SLOPE 15.1, PBLUC_R_SQUARED 0.204, read-out: LUCIFERASE INFECTION ASSAY - IC50) was 7.82 µM.
Turning to `COc1cccc(CN2CCN3C(C(=O)Nc4ccc(F)c(Cl)c4)=COC3=NC2=O)c1`, the IC90 was greater than 10 µM. The concentration for half-maximal inhibition (IC50) (HEPG2TOX_HILL_SLOPE 1.28, HEPG2TOX_R_SQUARED 0.654, PBLUC_HILL_SLOPE 1.61, PBLUC_R_SQUARED 0.572, read-out: LUCIFERASE INFECTION ASSAY - IC50) stood at 3.18 µM.
Turning to `CNS(=O)(=O)Cc1ccccc1CNCc1ccc(OC(F)F)cc1`, the IC90 is greater than 10 µM. Besides, the IC50 under setting [1] was greater than 10 µM.
`O=C(Nc1ccc(-c2nc3ccccc3[nH]2)cc1)C1CCCO1` (centres undefined): the IC90 is greater than 10 µM. The 50% inhibitory concentration (IC50) under setting [1] is greater than 10 µM.
On to `CC(C)NC(=O)NCc1ccc(C(=O)OCC(=O)C(C#N)=C2Nc3ccccc3N2)cc1`, for which the IC90 was determined as 6.88 µM. Also, the IC50 (PBLUC_HILL_SLOPE 2.52, PBLUC_R_SQUARED 0.605, read-out: LUCIFERASE INFECTION ASSAY - IC50) turned out to be 2.88 µM.
For the compound `COc1ccc(-c2c[n+]3c4n2CCCCC4=C(c2ccccc2)C3)cc1`, the IC90 was greater than 10 µM. Moreover, the IC50 (PBLUC_HILL_SLOPE 3.06, PBLUC_R_SQUARED 0.525, read-out: LUCIFERASE INFECTION ASSAY - IC50) came to 6.77 µM.
Regarding `CCN(CC)Cc1ccc(CNC(=O)c2oc3ccccc3c2CSc2nnc[nH]2)cc1`, the IC90 is greater than 10 µM. For the same compound, the IC50 under setting [1] came to 2.48 µM.
`CS(=O)(=O)N1CCCc2cc(-c3csc(Nc4ccccn4)n3)ccc21`: the IC90 was 2.51 µM. Further, the IC50 (HEPG2TOX_HILL_SLOPE 15.9, HEPG2TOX_R_SQUARED 0.84, PBLUC_HILL_SLOPE 1.6, PBLUC_R_SQUARED 0.55, read-out: LUCIFERASE INFECTION ASSAY - IC50) was determined as 0.637 µM.
As to `CCOC(=O)c1cnn(-c2cccc(NC(=O)c3ccc(SC)c([N+](=O)[O-])c3)c2)c1C`, the IC90 is greater than 10 µM. Further, under setting [1], the IC50 is greater than 10 µM.
Consider `O=c1c2ccccc2ncn1CCOCCOc1ccccc1-c1ccccc1`, for which the IC90 was greater than 8.54 µM. For the same compound, where the note is “HEPG2TOX_HILL_SLOPE 7.75, HEPG2TOX_R_SQUARED 0.123, read-out: LUCIFERASE INFECTION ASSAY - IC50”, the half-maximal inhibitory concentration (IC50) was greater than 8.54 µM.
With `CC1CC(NC(=S)NCc2csc3ccccc23)CC(C)(C)C1` (centres undefined), the IC90 was greater than 9.52 µM. For the same compound, the IC50 (PBLUC_HILL_SLOPE 0.667, PBLUC_R_SQUARED 0.384, read-out: LUCIFERASE INFECTION ASSAY - IC50) is greater than 9.52 µM.
`COc1cccc(NC(=O)N2CCc3nc(NCc4cccc(Oc5ccccc5)c4)ncc3C2)c1`: the IC90 turned out to be 3.67 µM. Besides, the IC50 (HEPG2TOX_HILL_SLOPE 15.7, HEPG2TOX_R_SQUARED 0.806, PBLUC_HILL_SLOPE 104, PBLUC_R_SQUARED 0.398, read-out: LUCIFERASE INFECTION ASSAY - IC50) amounted to 3.59 µM.
Take `CC(C)(C)c1ccc(/C=C2\CCc3c2nc2ccccc2c3C(=O)OCC#N)cc1`: the IC90 was greater than 10 µM. Besides, the IC50 under setting [1] was greater than 10 µM.
With `CN1CCN(c2ccc(Cl)cc2NC(=O)CCc2nc3ccccc3s2)CC1`, the IC90 was greater than 10 µM. Under setting [1], the IC50 was greater than 10 µM.
As for `CC(C)NC(=O)N1CCc2nc(NCc3cccc(Oc4ccccc4)c3)ncc2C1`, the IC90 was found to be 3.31 µM. Besides, the IC50 (HEPG2TOX_HILL_SLOPE 2.9, HEPG2TOX_R_SQUARED 0.984, PBLUC_HILL_SLOPE 15.1, PBLUC_R_SQUARED 0.233, read-out: LUCIFERASE INFECTION ASSAY - IC50) came out at 2.86 µM.
With `Cn1cc(-c2cnc3cnc(-c4cccc(Cl)c4)cn23)cn1`, the IC90 was greater than 10.7 µM. Under setting [1], the IC50 is greater than 10.7 µM.
Regarding `Cc1cn2c(CC(=O)Nc3ccc(C(F)(F)F)cc3)csc2n1`, the IC90 amounted to 5.2 µM. For the same compound, the IC50 (FFLUC_HILL_SLOPE 1.95, FFLUC_R_SQUARED 0.137, HEPG2TOX_HILL_SLOPE 2.23, HEPG2TOX_R_SQUARED 0.859, PBLUC_HILL_SLOPE 8.61, PBLUC_R_SQUARED 0.683, read-out: LUCIFERASE INFECTION ASSAY - IC50) turned out to be 4.03 µM.
With `COc1ccc(NS(=O)(=O)c2c(C)c(C)c(C)c(C)c2C)cc1O`, the IC90 turned out to be 3.8 µM. The IC50 (FFLUC_HILL_SLOPE 1.05, FFLUC_R_SQUARED 0.782, HEPG2TOX_HILL_SLOPE 1.26, HEPG2TOX_R_SQUARED 0.985, PBLUC_HILL_SLOPE 23, PBLUC_R_SQUARED 0.188, read-out: LUCIFERASE INFECTION ASSAY - IC50) was 3.45 µM.
As to `Cc1c(/C=N/NC(=O)c2ccccc2)c(Cl)n(C)c(=O)c1C#N`, the IC90 was greater than 10 µM. Besides, the IC50 under setting [1] was greater than 10 µM.
Turning to `CCOC(=O)CN(c1cc(OC(C)C)c(Cl)cc1Cl)S(=O)(=O)c1ccc(Cl)cc1`, the IC90 is greater than 6.86 µM. In addition, the IC50 (HEPG2TOX_HILL_SLOPE 6.82, HEPG2TOX_R_SQUARED 0.403, PBLUC_HILL_SLOPE 1.36, PBLUC_R_SQUARED 0.622, read-out: LUCIFERASE INFECTION ASSAY - IC50) was determined as 3.13 µM.
